The text below walks through data of US20030008807A1, “Novel signaling pathway for the production of inflammatory pain and neuropathy” (The Regents of the University of California, priority 2001, published 2003).

Assay [1] has as its system mechanical nociceptive threshold. The following applies: epinephrine 100 ng, 3.82 and 4.54 N/mm^2.
The test system is the same in assay [2]. The following applies: injected intradermally (Khasar et al., 1999b); cited from earlier work.
Assay [3] has as its system ERK1/2. The experiment in a line: Epinephrine-stimulated ERK1/2 phosphorylation in cultured rat DRG neurons (Western analysis). Format: cell-based.
Procedure: Trypsin was inactivated by adding 100 μg/ml soybean trypsin inhibitor and 2.5 mg/ml MgSO4. The cells were centrifuged at 300×g for 5 min and resuspended culture media containing minimal essential medium (MEM) supplemented with 10% heat-inactivated fetal calf serum, 1×MEM vitamins, and 1000 U/ml each of penicillin and streptomycin. The culture was enriched for neurons by preplating on 100 mm culture dishes pretreated with 0.1 mg/ml poly-DL-ornithine in 15 mM sodium borate buffer. After culture for 15-20 hr, the loosely attached neuronal cells were collected and plated for 3 hr on six-well plates coated with 0.1 mg/ml poly-DL-ornithine and 1 mg/ml laminin.
After drug treatment, cells from neuron-enriched DRG cultures were collected and centrifuged at 300×g for 5 min at 4° C. […] Blots were incubated with anti-phospho-p42/44 MAP kinase antibody (diluted 1:500 in blocking buffer) overnight at 4° C. Blots were rinsed three times in PBS-T and incubated in blocking buffer containing HRP-conjugated goat anti-rabbit IgG (diluted 1:1000; Boehringer Mannheim, Indianapolis, Ind.) for 1 hr at 27° C. Immunoreactive bands were visualized by enhanced chemiluminescence (Amersham Pharmacia Biotech, Piscataway, N.J.). The membranes were then stripped of antibodies by incubation in 200 mM NaOH for 20 min at 27° C. […] After three washes in PBS-T, blots were incubated with HRP-conjugated goat anti-rabbit IgG (diluted 1:1000; Boehringer Mannheim) for 1 hr at 27° C., and immunoreactive bands were visualized by enhanced chemiluminescence and autoradiography. […] Data were normalized by dividing values obtained for phospho-ERK1 and phospho-ERK2 immunoreactivity by the value obtained for total ERK1 immunoreactivity for each sample.
Assay [4] deals with mechanical nociceptive threshold. The following applies: dose-response studies (Khasar et al., 1999b); cited from earlier work.
For assay [5] the test system is unchanged. The assay is described as follows: Epinephrine-induced mechanical hyperalgesia, Randall-Selitto paw-withdrawal test (Example 1). The settings on record: rat, in vivo.
Source text: The nociceptive flexion reflex (Randall-Selitto paw-withdrawal test) was quantified with a Basile Analge-symeter (Stoelting, Chicago, Ill.), which applies a linearly increasing mechanical force to the dorsum of the rat's hindpaw. The mechanical nociceptive threshold was defined as the force in grams at which the rat withdrew its paw. […] They were allowed to crawl into individual cylindrical Perspex blocks and were lightly restrained there by closing both ends of the cylinder. […] The rats were allowed to acclimatize to the restrainer for 5-10 min, after which the hindpaws were exposed to the test stimulus. Three readings were taken at 5 min intervals, and their mean was considered the baseline threshold. After each drug administration, mechanical paw-withdrawal thresholds were determined again as the mean of three readings taken 20, 25, and 30 min after injection.
Inhibitors were diluted with distilled water before intra-dermal injections into the paw using a 10 μl microsyringe (Hamilton, Reno, Nev.). Injections of peptides (1 μg/2.5 μl) were always preceded by injection of distilled water (2.5 μl) to produce hypo-osmotic shock. […] Paw-withdrawal thresholds were measured again 10, 15, and 20 min after injecting the test agent. The mean of the paw-withdrawal thresholds obtained at these three times was then taken as the mechanical nociceptive threshold at the dose of the test agent used. The effect of each dose a test agent was calculated as the percentage change from baseline.
Assay [6] shares this test system. The experiment in a line: Epinephrine-induced hyperalgesia in gonad-intact and gonadectomized male and female rats (Example 2). The following applies: for absolute decrease in threshold after epinephrine: n=18.
Procedure: The nociceptive flexion reflex was quantified using the Randall-Selitto paw pressure device (Analgesymeter, Stoetling, Chicago, Ill., USA), which applies a linearly increasing mechanical force to the dorsum of the rat's hind paw. The mechanical nociceptive threshold was defined as the force in grams at which the rat withdrew its paw. […] Baseline paw-withdrawal threshold was defined as the mean of six readings before test agents were injected. […] Each group of rats was treated with only one agonist and/or antagonist injected peripherally by the intradermal route. […] All behavioural testing was done between 10.00 and 16.00 h. […] The protein kinase inhibitor was separated from the distilled water by drawing up a small air bubble (<1 μL) into the syringe after drawing up the protein kinase inhibitor but before drawing up the distilled water.
A stock solution of PGE2 (4 mg/mL) was made by dissolving it in 10% ethanol in normal saline; further dilution to 100 ng was made by addition of saline. Final concentration of ethanol was <10%. […] Stock solutions (1 μg/μL) of inhibitors were stored at −20° C. […] Inhibitors were injected at a concentration of 1 μg/2.5 μL.

With `CNC[C@H](O)c1ccc(O)c(O)c1` [epinephrine], the “response to VFH stimulation, wild-type vs PKCε mutant” value in assay [1] (female mice) is on record as “similar”. The “epinephrine-induced change in nociceptive response in PKCε-null vs wild-type” value in assay [1] (male mice) was “significantly less”. The “ED50 for lowering the nociceptive threshold” value in assay [2] is reported as approximately 20 ng. For the same compound, in assay [3], the “ERK1/2 phosphorylation (representative Western blot)” value was “stimulation”, the “concentration at which effect on ERK phosphorylation appeared maximal” value came to 1 µM, the “increase of phospho-ERK immunoreactivity over basal level” value is recorded as approximately 1.7 fold and the “time after which ERK phosphorylation returned to basal levels” value is 60 min. Further, the “time at which epinephrine-evoked ERK phosphorylation was greatest” value in assay [3] was determined as 5 min. Further, the Emax in assay [3] (Rattus norvegicus, DRG neuron, 5 min, read-out: maximal response relative to response to NGF) was in the range of 30 to 50%. For the same compound, in assay [4], the “dose producing maximal hyperalgesia” value was 100 ng. Also, the “decrease in mechanical nociceptive thresholds” value in assay [5] was approximately 35%. Also, the “change in mechanical nociceptive threshold over dose range” value in assay [6] (epinephrine 1-1000 ng intradermal, normal male and female rats) is “dose-dependent decrease”. Also, the “decrease in threshold after epinephrine, gonadectomized vs gonad-intact” value in assay [6] (female rats, epinephrine 100 ng) was “greater”. The “absolute decrease in threshold after epinephrine” value in assay [6] (female rats) stood at 72.7 ± 0.9 g. In assay [6] (male rats, epinephrine 100 ng), the “decrease in paw-withdrawal threshold produced by epinephrine, gonadectomized vs gonad-intact” value is “no significant difference”. Further, the “absolute decrease in threshold after epinephrine” value in assay [6] (male rats) turned out to be 63.7 ± 0.9 g.
